According to patent publication US7323490B2, “Pyrrole compounds and uses thereof” (Ambit Biosciences Corporation, priority 2003, dated 2008):

Assays:
[1] = target: T1, PDE6D (Homo sapiens, UniProt O43924); assay: T7 phage display competition binding assay (immobilized atorvastatin), PDE6D; design: made in house; host or cells: T7 phage amplified in E. coli; settings: soluble competitor vs atorvastatin-coated affinity matrix; T7 phage displaying human PDE6D
Text: (§1) The T7 phage displaying human PDE6D and CLB2 were obtained following the procedure of WO 01/18234, published Mar. 15, 2001, and U.S. patent applications Ser. No. 10/115,442, “Phage Display Affinity Filter and Forward Screen,” filed Apr. 2, 2002 and Ser. No. 10/214,654, “Uncoupling DNA Insert Propagation and Protein Display,” filed Aug. 7, 2002. […] The phage eluate was then amplified by growth in E. coli and the affinity enrichment procedure was repeated.
(§2) The dissociation constants, Kd's, for the interaction between the pyrrole compounds and the novel targets were obtained following the procedure of the co-pending patent applications U.S. Ser. Nos. 10/115,442, “Phage Display Affinity Filter and Forward Screen,” filed Apr. 2, 2002 and 60/480,587, “Protein Family Profiling Tool and Methods,” filed Jun. 20, 2003.

[2] = target: T2, CLB2 (Homo sapiens, UniProt P22676); assay: T7 phage display competition binding assay (immobilized atorvastatin), CLB2; settings: soluble competitor vs atorvastatin-coated affinity matrix; T7 phage displaying CLB2
T2 construct: made in house; host or cells: T7 phage amplified in E. coli
T2 sequence (P22676 1-271): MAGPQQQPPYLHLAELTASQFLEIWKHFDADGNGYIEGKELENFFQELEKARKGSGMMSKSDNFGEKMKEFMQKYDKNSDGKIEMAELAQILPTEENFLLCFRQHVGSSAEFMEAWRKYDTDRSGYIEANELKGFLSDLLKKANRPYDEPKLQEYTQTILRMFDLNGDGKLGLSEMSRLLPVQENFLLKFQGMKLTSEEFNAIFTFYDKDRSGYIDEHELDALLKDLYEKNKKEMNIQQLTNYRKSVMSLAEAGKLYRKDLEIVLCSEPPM
Text: as §1, §2

[3] = target: T1, PDE6D; assay: phage-based competition binding screen at 2 μM; design: made in house; host or cells: phage; settings: 2 μM competitor, duplicate
Method: Forty-four molecules were screened for PDE6D binding activity in a standard phage-based competition binding assay, as described in co-pending U.S. patent applications Ser. No. 10/115,442, filed 2 Apr. 2002, and Ser. No. 10/406,797 filed on 2 Apr. 2003 (or PCT International Application PCT/US03/10247 filed 2 Apr. 2003). All compounds were screened in duplicate (duplicate sets of bars) at a concentration of 2 μM.

[4] = target: T3, HMG-CoA reductase (Homo sapiens, UniProt P04035); assay: enzymatic activity-based HMG-CoA reductase assay; assay type: biochemical; settings: concentrations up to 4 μM
T3 sequence (P04035 1-888): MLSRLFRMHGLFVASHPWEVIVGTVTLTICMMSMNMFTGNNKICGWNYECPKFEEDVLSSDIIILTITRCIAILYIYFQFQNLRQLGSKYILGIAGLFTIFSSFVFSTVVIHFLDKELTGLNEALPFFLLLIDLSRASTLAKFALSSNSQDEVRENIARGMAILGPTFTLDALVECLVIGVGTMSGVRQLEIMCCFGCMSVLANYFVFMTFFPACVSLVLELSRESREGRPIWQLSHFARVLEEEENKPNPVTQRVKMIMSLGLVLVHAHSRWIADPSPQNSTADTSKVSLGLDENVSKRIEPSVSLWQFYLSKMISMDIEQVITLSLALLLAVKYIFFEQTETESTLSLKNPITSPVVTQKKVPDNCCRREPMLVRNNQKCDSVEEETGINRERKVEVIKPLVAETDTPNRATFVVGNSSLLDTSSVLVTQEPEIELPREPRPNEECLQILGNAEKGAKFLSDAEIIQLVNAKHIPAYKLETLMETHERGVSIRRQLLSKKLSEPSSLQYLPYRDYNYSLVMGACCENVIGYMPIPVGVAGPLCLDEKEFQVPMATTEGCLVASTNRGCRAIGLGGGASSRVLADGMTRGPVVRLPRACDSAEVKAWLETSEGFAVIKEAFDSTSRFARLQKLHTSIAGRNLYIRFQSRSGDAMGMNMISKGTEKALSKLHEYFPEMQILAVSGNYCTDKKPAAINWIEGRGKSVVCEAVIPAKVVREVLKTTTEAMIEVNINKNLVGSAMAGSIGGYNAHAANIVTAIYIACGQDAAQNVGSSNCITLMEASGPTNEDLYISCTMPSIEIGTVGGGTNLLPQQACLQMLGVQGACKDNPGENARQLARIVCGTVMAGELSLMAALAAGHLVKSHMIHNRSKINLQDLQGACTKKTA
Method: In addition, compounds 781430, 781066, 780780, 780754, 779974, 781456, 782236, 782756, 783250 and 780520 were tested in enzymatic activity-based HMG-CoA reductase assays. […] Blank cells indicate there was no detectable interaction while the “nd” designation indicates the Kd was not determined.

| Kd [1] | Kd [2] | fraction of PDE6D-displaying phage bound to immobilized atorvastatin (screen outcome) [3] | inhibition of the activity of HMG-CoA reductase [4] | SMILES |
| --- | --- | --- | --- | --- |
| 598 nM |  |  |  | CC(C)c1c(C(=O)Nc2ccccc2)c(-c2ccccc2)c(-c2ccc(F)cc2)n1Cc1ccccc1 [Compound 780000] |
|  | 1850 nM |  |  | CC(C)c1c(C(=O)Nc2ccccc2)c(-c2ccccc2)c(-c2ccc(F)cc2)n1CCS(=O)O [Compound 783666] |
| 685 nM | 9000 nM |  |  | CC(C)c1c(C(=O)Nc2ccccc2)c(-c2ccccc2)c(-c2ccc(F)cc2)n1CC[C@@H]1C[C@H](CC(=O)O)OC(C)(C)O1 [Compound 782964] |
| 61 nM | 1890 nM | candidate lead compounds |  | CC(C)c1c(C(=O)Nc2ccccc2)c(-c2ccccc2)c(-c2ccc(F)cc2)n1CCCCCO [Compound 780676] |
| 805 nM |  |  |  | CCCCCn1c(-c2ccc(F)cc2)c(-c2ccccc2)c(C(=O)Nc2ccccc2)c1C(C)C [Compound 782366] |
| 387 nM | 6000 nM |  |  | CC(C)c1c(C(=O)Nc2ccccc2)c(-c2ccccc2)c(-c2ccc(F)cc2)n1CCN1CCOCC1 [Compound 780052] |
| 60 nM | 1640 nM | candidate lead compounds |  | CC(C)c1[nH]c(-c2ccccc2)c(-c2ccccc2)c1C(=O)Nc1ccccc1 [Compound 780858] |
| 280 nM | 1000 nM |  |  | COCC(C(O)c1ccccc1)n1c(-c2ccc(F)cc2)c(-c2ccccc2)c(C(=O)Nc2ccccc2)c1C(C)C (centres unmarked) [Compound 780910] |
| 44 nM | 1850 nM | candidate lead compounds | none of the tested compounds inhibited | CC(C)c1c(C(=O)Nc2ccccc2)c(-c2ccccc2)c(-c2ccc(F)cc2)n1CCCN1CCCC1=O [Compound 780520] |
| 6550 nM |  |  |  | CCOC(=O)CCn1c(-c2ccc(F)cc2)c(-c2ccccc2)c(C(=O)Nc2ccccc2)c1C(C)C [Compound 780026] |
| 350 nM | 1650 nM |  |  | CC(C)c1c(C(=O)Nc2ccccc2)c(-c2ccccc2)c(-c2ccc(F)cc2)n1CCCCCCC(=O)O [Compound 780728] |
| 114 nM | 2000 nM |  |  | CC(C)c1c(C(=O)Nc2ccccc2)c(-c2ccccc2)c(-c2ccc(F)cc2)n1CCCCCCO [Compound 780702] |
| 141 nM | 3000 nM |  |  | CCC(C)C(CO)n1c(-c2ccc(F)cc2)c(-c2ccccc2)c(C(=O)Nc2ccccc2)c1C(C)C (centres unmarked) [Compound 780936] |
| 114 nM | 6070 nM | candidate lead compounds |  | CC(C)c1c(C(=O)Nc2ccccc2)c(-c2ccccc2)c(-c2ccc(F)cc2)n1C [Compound 780104] |
| 58 nM | 1830 nM |  | none of the tested compounds inhibited | CC(=O)NCCn1c(-c2ccc(F)cc2)c(-c2ccccc2)c(C(=O)Nc2ccccc2)c1C(C)C [Compound 780754] |
| 430 nM | 6000 nM |  |  | COc1ccc(-c2[nH]c(C(C)C)c(C(=O)Nc3ccccc3)c2-c2ccccc2)cc1 [Compound 780988] |
| 488 nM | 2340 nM |  |  | CC(C)c1c(C(=O)Nc2ccccc2)c(-c2ccccc2)c(-c2ccc(F)cc2)n1CCO [Compound 780078] |
| 1100 nM | 335 nM |  |  | CC(C)c1c(C(=O)Nc2ccccc2)c(-c2ccccc2)c(-c2ccc(F)cc2)n1CC(O)CC(=O)O (centres unmarked) [Compound 783770] |
| 880 nM |  |  |  | CC(C)c1c(C(=O)Nc2ccccc2)c(-c2ccccc2)c(-c2ccc(F)cc2)n1CC(=O)OC(C)(C)C [Compound 780546] |
|  | 2100 nM |  |  | CC(C)c1c(C(=O)Nc2ccccc2)c(-c2ccccc2)c(-c2ccc(F)cc2)n1[C@H](C)C(=O)OC(C)(C)C [Compound 780650] |
| 300 nM |  |  |  | CC(C)c1c(C(=O)Nc2ccccc2)c(-c2ccccc2)c(-c2ccc(F)cc2)n1CCOCCO [Compound 780598] |
